≈ marks a conversion by molar mass, not a printed value.

For this test, the system named is A. baumannii strain ATCC19606. Nature of the test: Minimum inhibitory concentration (MIC) determination, microbroth dilution (CLSI). It counts as cell-based. To be noted: Acinetobacter baumannii; A. baumannii ATCC19606; CAMHB; read after 20 hours; >=80% growth inhibition; read-out: ATCC19606 MIC. In outline:
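After 20 h at 35±2 °C, MIC taken visually and by OD 600 nm as the lowest concentration giving ≥80% growth inhibition. Bacteria (~5×10^5 CFU/ml) were tested per CLSI microbroth dilution against twofold serial compound dilutions in cation-adjusted Mueller Hinton broth.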
In general terms: Dilution methods test growth across graded concentrations, often in twofold steps.
`CCN1C(=O)[C@H](CCCCN)NC(=O)[C@H](CCCN)NCc2cccnc2Sc2c(Cl)cc(C(F)(F)F)cc2CNC(=O)[C@@H]1Cc1c[nH]c2ccccc12` [Example 77, (11S,14S,17S)-14-(4-Amino-butyl)-11-(3-amino-propyl)-25-chloro-16-ethyl-17-(1H-indol-3-ylmethyl)-23-trifluoromethyl-2-thia-4,10,13,16,19-pentaaza-tricyclo[19.4.0.0*3,8*]pentacosa-1(25),3(8),4,6,21,23-hexaene-12,15,18-trione]: the MIC was found to be 0.5 mg/L (≈ 0.635 µM). For `CN1C(=O)[C@H](CCCCN)NC(=O)[C@H](C2CCNCC2)NCc2ccccc2Sc2ccccc2CNC(=O)[C@@H]1Cc1c[nH]c2ccccc12` [Example 3, (12S,15S,18S)-15-(4-Amino-butyl)-12-(1H-indol-3-ylmethyl)-13-methyl-18-piperidin-4-yl-2-thia-10,13,16,19-tetraaza-tricyclo[19.4.0.0*3,8*]pentacosa-1(21),3,5,7,22,24-hexaene-11,14,17-trione], the MIC was determined as 16 mg/L (≈ 23 µM). Next, `Cc1ccc2c(c1)Sc1ccccc1CN[C@@H](CCCN)C(=O)N[C@@H](CCCCN)C(=O)N(C)[C@@H](Cc1c[nH]c3ccccc13)C(=O)NC2` [Example 9, (12S,15S,18S)-15-(4-Amino-butyl)-18-(3-amino-propyl)-12-(1H-indol-3-ylmethyl)-5,13-dimethyl-2-thia-10,13,16,19-tetraaza-tricyclo[19.4.0.0*3,8*]pentacosa-1(21),3,5,7,22,24-hexaene-11,14,17-trione]: 16 mg/L (≈ 23.4 µM); `Cc1cccc2c1Sc1ccc(F)cc1CN[C@@H](CCCN)C(=O)N[C@@H](CCCCN)C(=O)N(C)[C@@H](Cc1c[nH]c3ccccc13)C(=O)NC2` [Example 65, (12S,15S,18S)-15-(4-Amino-butyl)-18-(3-amino-propyl)-23-fluoro-12-(1H-indol-3-ylmethyl)-4,13-dimethyl-2-thia-10,13,16,19-tetraaza-tricyclo[19.4.0.0*3,8*]pentacosa-1(25),3,5,7,21,23-hexaene-11,14,17-trione]: 32 mg/L (≈ 45.6 µM).

Turning to `CN1C(=O)[C@H](CCCCN)NC(=O)[C@H](CCCN)NCc2cccnc2Sc2c(Cl)cc(-c3ccc(O)nc3)cc2CNC(=O)[C@@H]1Cc1c[nH]c2ccccc12` [Example 165, (11S,14S,17S)-14-(4-Amino-butyl)-11-(3-amino-propyl)-25-chloro-23-(6-hydroxy-pyridin-3-yl)-17-(1H-indol-3-ylmethyl)-16-methyl-2-thia-4,10,13,16,19-pentaaza-tricyclo[19.4.0.0*3,8*]pentacosa-1(25),3(8),4,6,21,23-hexaene-12,15,18-trione], the MIC stood at 4 mg/L (≈ 5.01 µM). Next, `CN1C(=O)[C@H](CCCCN)NC(=O)[C@H](CCCN)NCc2ccccc2Sc2c(ccnc2Cl)CNC(=O)[C@@H]1Cc1c[nH]c2ccccc12` [Example 113, (12S,15S,18S)-15-(4-Amino-butyl)-18-(3-amino-propyl)-4-chloro-12-(1H-indol-3-ylmethyl)-13-methyl-2-thia-5,10,13,16,19-pentaaza-tricyclo[19.4.0.0*3,8*]pentacosa-1(25),3,5,7,21,23-hexaene-11,14,17-trione]: 2 mg/L (≈ 2.84 µM); `CN1C(=O)[C@H](CCCCN)NC(=O)[C@H](CCCN)NCc2cccnc2Sc2c(Cl)ccc(-c3ccncc3)c2CNC(=O)[C@@H]1Cc1c[nH]c2ccccc12` [Example 190, (11S,14S,17S)-14-(4-Amino-butyl)-11-(3-amino-propyl)-25-chloro-17-(1H-indol-3-ylmethyl)-16-methyl-22-pyridin-4-yl-2-thia-4,10,13,16,19-pentaaza-tricyclo[19.4.0.0*3,8*]pentacosa-1(21),3,5,7,22,24-hexaene-12,15,18-trione]: 0.12 mg/L (≈ 0.153 µM); `CN1C(=O)[C@H](CCCCN)NC(=O)[C@H](CCCN)NCc2ccncc2Sc2c(Cl)ccc(C(F)(F)F)c2CNC(=O)[C@@H]1Cc1c[nH]c2ccccc12` [Example 122, (11S,14S,17S)-14-(4-Amino-butyl)-11-(3-amino-propyl)-25-chloro-17-(1H-indol-3-ylmethyl)-16-methyl-22-trifluoromethyl-2-thia-5,10,13,16,19-pentaaza-tricyclo[19.4.0.0*3,8*]pentacosa-1(25),3,5,7,21,23-hexaene-12,15,18-trione]: 1 mg/L (≈ 1.29 µM).

Regarding `Cc1ccc(-c2cc3c(cn2)Sc2ncccc2CN[C@@H](CCCN)C(=O)N[C@@H](CCCCN)C(=O)N(C)[C@@H](Cc2c[nH]c4ccccc24)C(=O)NC3)cn1` [Example 178, (7S,10S,13S)-13-((1H-Indol-3-yl)methyl)-10-(4-aminobutyl)-7-(3-aminopropyl)-12-methyl-18-(6-methylpyridin-3-yl)-6,7,9,10,12,13,15,16-octahydrodipyrido[2,3-b:4′,3′-p][1,5,8,11,14]thiatetraazacycloheptadecine-8,11,14(5H)-trione], the MIC worked out at 32 mg/L (≈ 41.9 µM).

In the case of `CN1C(=O)[C@H](CCCCN)NC(=O)[C@H](CCCN)NCc2cc(F)ccc2Sc2ccccc2CNC(=O)[C@@H]1Cc1c[nH]c2ccccc12` [Example 56, (12S,15S,18S)-15-(4-Amino-butyl)-18-(3-amino-propyl)-23-fluoro-12-(1H-indol-3-ylmethyl)-13-methyl-2-thia-10,13,16,19-tetraaza-tricyclo[19.4.0.0*3,8*]pentacosa-1(25),3,5,7,21,23-hexaene-11,14,17-trione], the MIC was 16 mg/L (≈ 23.3 µM). For the molecule `CN1C(=O)[C@H](CCCCN)NC(=O)[C@H](CCCN)NCc2cccnc2Sc2c(Cl)cc(-c3ccnc(N4CCOCC4)c3)cc2CNC(=O)[C@@H]1Cc1c[nH]c2ccccc12` [Example 162, (11S,14S,17S)-14-(4-Amino-butyl)-11-(3-amino-propyl)-25-chloro-17-(1H-indol-3-ylmethyl)-16-methyl-23-(2-morpholin-4-yl-pyridin-4-yl)-2-thia-4,10,13,16,19-pentaaza-tricyclo[19.4.0.0*3,8*]pentacosa-1(25),3(8),4,6,21,23-hexaene-12,15,18-trione], the MIC was determined as 0.5 mg/L (≈ 0.576 µM).

For the molecule `CCN1C(=O)[C@H](CCCCN)NC(=O)[C@H](CCCN)NCc2ccccc2Sc2ccc(Cl)cc2CNC(=O)[C@@H]1Cc1c[nH]c2ccccc12` [Example 43, (12S,15S,18S)-15-(4-Amino-butyl)-18-(3-amino-propyl)-6-chloro-13-ethyl-12-(1H-indol-3-ylmethyl)-2-thia-10,13,16,19-tetraaza-tricyclo[19.4.0.0*3,8*]pentacosa-1(21),3,5,7,22,24-hexaene-11,14,17-trione], the MIC turned out to be 1 mg/L (≈ 1.39 µM). Next, `CN1C(=O)[C@H](CCCCN)NC(=O)[C@H](CCCN)NCc2ccccc2Sc2c(Cl)cc(Cl)cc2CNC(=O)[C@@H]1Cc1c[nH]c2ccccc12` [Example 42, (12S,15S,18S)-15-(4-Amino-butyl)-18-(3-amino-propyl)-4,6-dichloro-12-(1H-indol-3-ylmethyl)-13-methyl-2-thia-10,13,16,19-tetraaza-tricyclo[19.4.0.0*3,8*]pentacosa-1(25),3,5,7,21,23-hexaene-11,14,17-trione]: 1 mg/L (≈ 1.35 µM).

Take `CN1C(=O)[C@H](CCCCN)NC(=O)[C@H](CCCN)NCc2ccccc2Sc2cnccc2CNC(=O)[C@@H]1Cc1c[nH]c2ccccc12` [Example 63, (12S,15S,18S)-15-(4-Amino-butyl)-18-(3-amino-propyl)-12-(1H-indol-3-ylmethyl)-13-methyl-2-thia-5,10,13,16,19-pentaaza-tricyclo[19.4.0.0*3,8*]pentacosa-1(25),3,5,7,21,23-hexaene-11,14,17-trione]: the MIC is 32 mg/L (≈ 47.7 µM).

The term MIC denotes the lowest concentration found to suppress growth.

The values above are taken from patent publication US10030047B2 (Hoffmann-La Roche Inc., priority 2015, dated 2018).
